# Experimental data taken from patent US20210315476A1, “Depth-independent method for in-vivo drug release monitoring and quantification based on magnetic particle imaging” (The Board of Trustees of the Leland Stanford Junior …, priority 2018, published 2021).
# Test system: MDA-MB-231 tumors
# Assay: TUNEL assay for tumor apoptosis
# Format: in vivo, nude mice
# Conditions: tumors harvested 48 h after intratumoral injection, N=3 mice per condition
# Method: Furthermore, we evaluated the therapeutic efficacy of Fe3O4@PLGA-DOX to the tumor. Tumor tissues of the orthotopic breast cancer mice were harvested after injection of Fe3O4@PLGA-DOX for 48 h and then sectioned for TUNEL apoptosis assay. […] Meanwhile, the fluorescence signals can also be observed in the tissue section.
# MDA-MB-231 tumors on nude mice were harvested and encapsulated in Tissue-Tek® O.C.T. and then frozen. Tumor tissues embedded in were sectioned by cryostat with a thickness of 2 μm for each slice. tissue slices were treated with Click-iT™ Plus TUNEL Assay (Alexa Fluor™ 488 dye) kit for apoptosis detection. Fluorescence images of tumor tissues were captured by fluorescent microscopy. Alexa Fluor™ 488 dye was excited by 488 nm laser and the emission collecting window was 500-540 nm. The signal of DOX were excited by 488 nm laser and emission was collected at 580-630 nm.
smiles,measurement,value
"COc1cccc2c1C(=O)c1c(O)c3c(c(O)c1C2=O)C[C@@](O)(C(=O)CO)C[C@@H]3O[C@H]1C[C@H](N)[C@H](O)[C@H](C)O1 [DOX, doxorubicin]",apoptosis in tumor section (TUNEL),exhibited apoptosis
